Test results: US10980764B1, “Exogenous ketone supplements for reducing anxiety-related behavior” (priority 2016, dated 2021)

Key:
[1] = system: Sprague-Dawley (SPD) rats; assay: EPM after 7 days oral gavage, SPD rats, Study 1; format: in vivo, rat; settings: compared to control (SD); for Time spent in the center: 7 days (gavage 5 g/kg b.w./day or KD fed)
Method: (§1) EPM (COULBOURN Instruments) was used to assess anxiety-related behavior of the rats after 83 days of chronic feeding or after 7 days of oral gavage. EPM experiments were carried out under non-stressful conditions (in a dimly lit and quiet room) between 12.00 and 14.00 hours.
(§2) The rats were transferred in their home cage to the experimental room 30 min prior to beginning the experiment. Briefly, rats were placed in the intersection of the four arms of the EPM, facing the open arm opposite to where the experimenter was and their behavior was recorded for 5 minutes. The amount of time spent and number of entries made on the open arms, closed arms and the center zones were recorded. Latency to entry into the closed arms and the distance travelled in each zones was also measured in chronically treated SPD rats. Notes were made on other ethological measures such as number of rears, head dips, fecal boli, and freezing, or stretched-attend postures.
(§3) At the end of the 5-minute test the rats were removed from the maze and placed back into their home cage. The maze was cleaned with 70% alcohol and after it with tap water and dried with paper towel between rats. The primary method for data collection was a video-tracking system with computer interface and video camera (SMART V3.0 PLATFORM, PANLAB, Harvard Apparatus, USA), to automatically collect behavioral data in SPD rats. A blinded observer was present in the testing room separated from the maze by a curtain, and manually collected EPM data in both SPD and WAG/Rij animals at the end of treatments.
(§4) All data are presented as the mean±standard error of the mean (SEM). The effects of ketone supplementations on anxiety level were compared, as well as on blood βHB and glucose levels to control or/and baseline levels. Data analysis was performed using GraphPad PRISM version 6.0a. Results were considered significant when p<0.05. Significance was determined by unpaired t-test. Blood ketone, blood glucose, and body weight change were compared using a two-way ANOVA with Tukey's multiple comparisons test and unpaired t-test.

[2] = Blood βHB and glucose levels (Precision Xtra), WAG/Rij rats, Study 3
Method: For the sub-chronic gavage administration, the gavage dose was used that induced desired elevation of blood ketone based on the current inventors' previous studies (Kesl et al. 2016).
In the chronic feeding study, blood βHB and glucose levels were measured 24 hours before the 1st day of ketone treatments (baseline levels) and at the 13th week after the EPM experiment. In the 7-day oral gavage studies, blood βHB and glucose levels were measured 24 hours before the 1st day of ketone treatments (baseline levels; SPD and WAG/Rij rats), 24 hours after the first gavage, and 60 min after gavage on the 7th day (SPD and WAG/Rij rats). Whole blood samples (10 μL) were taken from the saphenous vein for analysis of blood glucose (mg/dl) and βHB (mmol/1) levels with the commercially available glucose and ketone (βHB) monitoring system Precision Xtra™ (Abbott Laboratories, Abbott Park, Ill., USA).
as §4, with “anxiety-related behavior” for “anxiety level”, “one-way ANOVA with Fisher s LSD test for the behavioral data.” for “unpaired t-test.”, “test.” for “test and unpaired t-test.”

[3] = Body weight, SPD rats, Study 1; format: in vivo, rat; settings: for Body Weight (7 days), Mean Diff., Tukey's multiple comparisons test: in g (unit assumed)
Method: The body weight of all animals was recorded before ketone treatments started (before) and after the last ketone treatments (after).
Results were considered significant when p<0.05. […]

SPD rats = assay: EPM after 83 days chronic feeding, SPD rats, Study 3; format: in vivo, rat; settings: chronic feeding 83 days, compared to control (SD)
Method: Generally, exogenous ketone supplementation was tested by adding to food and feeding chronically for 83 days in SPD rats and administering sub-chronically for 7 days in both rat models by daily intragastric gavage bolus, followed by assessment of anxiety measures on EPM. The groups included standard diet (SD) or SD+ketone supplementation.
EPM (Coulbourn Instruments) was used to assess anxiety-related behavior of the rats after 83 days of chronic feeding or after 7 days of oral gavage. EPM experiments were carried out under non-stress conditions (in dimly lit and quiet room) between 12.00 and 14.00 hours.
The rats were transferred in their home cage to the experimental room 30 min prior to beginning the experiment. Briefly, rats were placed in the intersection of the four arms of the EPM, facing the open arm opposite to where the experimenter was and their behavior was recorded for 5 minutes. The amount of time spent and number of entries made on the open arms, closed arms and the center zones were video recorded. Latency to entry into the closed arms and the distance travelled in each zones was also measured in chronically treated SPD rats. […] At the end of the 5-minute test, the rats were removed from the maze and placed back into their home cage. The maze was cleaned with 70% alcohol and after it with tap water and dried with paper towel between rats. The primary method for data collection was a video-tracking system with computer interface and video camera (SMART V3.0 PLATFORM, Panlab, Harvard Apparatus, USA), to automatically collect behavioral data in SPD rats. A blinded observer was present in the testing room separated from the maze by a curtain, and collected EPM data in both SPD and WAG/Rij animals.
Results were considered significant when p<0.05.

[4] = system: Sprague-Dawley (SPD) rats; assay: Elevated plus maze (EPM) after 83 days chronic feeding, Study 1; format: in vivo, rat; settings: compared to control (SD)
Method: Generally, exogenous ketone supplements were tested and fed chronically for 83 days and administered sub-chronically for 7 days by gavage, followed by assessment of anxiety measures on elevated plus maze (EPM) on 97 male SPD rats.
In order to familiarize the animals to the intragastric gavage method, tap water was gavaged for 5 days before ketone supplementation. A total of 48 male SPD rats were fed for 83 days with either standard rodent chow (SD)+water application (˜25 g/kg b.w. water/day) (SD/control group; n=9) or SD+ketone supplementation by gavage.
as §1, §2, §3, §4

[5] = Blood βHB and glucose levels (PRECISION XTRA), WAG/Rij rats, Study 1; format: in vivo, rat; settings: for Blood βHB: WAG/Rij rats, after 7 days of gavaging ~2.5 g/kg b.w./day, compared to baseline; for Glucose, Mean Diff., Tukey's multiple comparisons test (Compare S-D to WagRij) / βHB, Mean Diff., Tukey's multiple comparisons test (Compare S-D to WagRij): WR (WAG/Rij) rats, own Baseline minus 7 days of the same group
[6] = After:SD (control) minus After:treated group

What does the source list for `CC(=O)CC(=O)OCCC(C)OC(=O)CC(C)=O` (centres unmarked) [KE, 1,3-butanediol-acetoacetate diester]?
Time spent in the center [1]: decreased; Time spent in the open arms ([1]; 7 days gavage 5 g/kg b.w./day): increased; Glucose levels ([2]; WAG/Rij rats, after 24h, compared to baseline levels): lower; Glucose levels ([2]; WAG/Rij rats, after 7 days compared to the level at 24h): elevated; Blood βHB ([2]; WAG/Rij rats, after 7 days of gavage, compared to baseline, 24 hours and control): elevated; Body Weight (7 days), Mean Diff., Tukey's multiple comparisons test [3, 6]: 37.03; Body weight ([3]; after chronic feeding (week 13), compared to control, listed as SD+LKE): higher; Body Weight (90 days), Mean Diff., Tukey's multiple comparisons test ([3]; chronic feeding, After:SD (control) minus After:treated group): 73.96; Distance traveled in the closed arms (SPD rats): significantly less; Time spent in the closed arms (SPD rats): significantly less; Distance traveled in the closed arms ([4]; chronic feeding 83 days): significantly less; Latency to first entrance of closed arms ([4]; chronic feeding 83 days): significantly greater; Blood βHB [5]: elevated; Glucose, Mean Diff., Tukey's multiple comparisons test (Compare S-D to WagRij) [5]: -2.75 mg/dL; βHB, Mean Diff., Tukey's multiple comparisons test (Compare S-D to WagRij) [5]: −0.6125 mmol/1

Which “Time spent in the center” value [1] does the source give for Na^+/K^+-βHB mineral salt [KS] here?
The value was “decreased”.

What about the “Entries to the center” value ([1]; 7 days gavage 5 g/kg b.w./day) of the same molecule?
Its value is “fewer times”.

And the “Entries to the closed arms” value ([1]; 7 days gavage 5 g/kg b.w./day)?
Its value is “less frequent”.

And the “Blood βHB” value ([2]; rat, in vivo)?
Its value is “elevated”.

And the “Body Weight (7 days), Mean Diff., Tukey's multiple comparisons test” value [3, 6]?
The value was 48.25.

And the “Distance traveled in the center” value (SPD rats)?
The value was “more”.

And the “Distance traveled in the closed arms” value (SPD rats)?
Its value is “significantly less”.

And the “Distance traveled in the open arms” value (SPD rats)?
The value was “significantly greater”.

And the “Time spent in the center” value (SPD rats)?
Its value is “significantly more”.

What about the “Time spent in the closed arms” value (SPD rats) of the same molecule?
Its value is “significantly less”.

What about the “Time spent in the open arms” value ([4]; chronic feeding 83 days (~25 g/kg b.w./day; LKE ~10)) of the same molecule?
The value was “significantly more”.

What about the “Distance traveled in the center” value ([4]; chronic feeding 83 days) of the same molecule?
The value was “more”.

What about the “Distance traveled in the closed arms” value ([4]; chronic feeding 83 days) of the same molecule?
Its value is “significantly less”.

And the “Distance traveled in the open arms” value ([4]; chronic feeding 83 days)?
Its value is “significantly greater”.

What about the “Latency to first entrance of closed arms” value ([4]; chronic feeding 83 days) of the same molecule?
The value was “significantly greater”.

What about the “Time spent in the center” value ([4]; chronic feeding 83 days) of the same molecule?
The value was “significantly more”.

What about the “Time spent in the closed arms” value ([4]; chronic feeding 83 days) of the same molecule?
The value was “significantly less”.

And the “Blood βHB” value [5]?
The value was “elevated”.

And the “Glucose, Mean Diff., Tukey's multiple comparisons test (Compare S-D to WagRij)” value [5]?
Its value is -6.5 mg/dL.

What about the “βHB, Mean Diff., Tukey's multiple comparisons test (Compare S-D to WagRij)” value [5] of the same molecule?
Its value is −0.5375 mmol/1.
